Assay results from ChEMBL document CHEMBL1201862, “PubChem BioAssay data set” (2004).
“And” between values parts separate entries of the source, which are not always exact repeats. Equal values may be shown once.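 1) Cells in 96-well plates. 2) Compound, 48 h, 5 concentrations. 3) Linear interpolation between surrounding doses. 4) Unreached endpoint = highest concentration. GI50 marks 50% less growth.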 The source made the active and inactive calls. No stated cut-off is given here; in the data, active = GI50 up to about 1.1 µM and inactive = higher.

Tests used:
Experiment in all cases: growth of human tumour cells (NCI), 48 h
HOP-92 = tested on: HOP-92
OVCAR-8 = tested on: OVCAR-8
SW-620 = tested on: SW-620
LOX IMVI = tested on: LOX IMVI
SNB-19 = tested on: SNB-19
M14 = tested on: M14
SF-268 = tested on: SF-268
OVCAR-4 = tested on: OVCAR-4
COLO 205 = tested on: COLO 205
U-251 = tested on: U-251
ACHN = tested on: ACHN
UO-31 = tested on: UO-31
HCC 2998 = tested on: HCC 2998
K562 = tested on: K562
SK-MEL-5 = tested on: SK-MEL-5
HT-29 = tested on: HT-29
SK-MEL-28 = tested on: SK-MEL-28
HCT-116 = tested on: HCT-116
SR = tested on: SR
NCI/ADR-RES = tested on: NCI/ADR-RES

Structure (SMILES)	GI50 (HOP-92)	GI50 (OVCAR-8)	GI50 (SW-620)	GI50 (LOX IMVI)	GI50 (SNB-19)	GI50 (M14)	GI50 (SF-268)	GI50 (OVCAR-4)	GI50 (COLO 205)	GI50 (U-251)	GI50 (ACHN)	GI50 (UO-31)	GI50 (HCC 2998)	GI50 (K562)	GI50 (SK-MEL-5)	GI50 (HT-29)	GI50 (SK-MEL-28)	GI50 (HCT-116)	GI50 (SR)	GI50 (NCI/ADR-RES)
CC1(C)Cc2nnsc2C2=C1C(=O)CCS2	32.7 µM (inactive)	> 100 µM (inactive)	> 100 µM (inactive)	> 100 µM (inactive)	> 100 µM (inactive)	> 100 µM (inactive)	> 100 µM (inactive)	> 100 µM (inactive)	> 100 µM (inactive)	60.4 µM (inactive)	> 100 µM (inactive)	> 100 µM (inactive)	> 100 µM (inactive)	> 100 µM (inactive)	> 100 µM (inactive)	> 100 µM (inactive)	> 100 µM (inactive)			
O=C(Nc1nnc(S)[nH]1)C(=O)C(c1cnc2ccc([N+](=O)[O-])cc2n1)[N+](=O)[O-] (centres undefined)	> 100 µM (inactive)	> 100 µM (inactive)	> 100 µM (inactive)	> 100 µM (inactive)	> 100 µM (inactive)	> 100 µM (inactive)	> 100 µM (inactive)	> 100 µM (inactive)	> 100 µM (inactive)	> 100 µM (inactive)	94.8 µM (inactive)	> 100 µM (inactive)	> 100 µM (inactive)	> 100 µM (inactive)	> 100 µM (inactive)	> 100 µM (inactive)	> 100 µM (inactive)	> 100 µM (inactive)	> 100 µM (inactive)	
O=C1c2[nH]c3ccc(Br)cc3c2CCN1Cc1ccc(Cl)cc1	16.2 µM (inactive)	18.7 µM (inactive)	16.5 µM (inactive)	12.5 µM (inactive)	15.1 µM (inactive)	13.2 µM (inactive)	12.7 µM (inactive)	18.6 µM (inactive)	17.7 µM (inactive)	12.5 µM (inactive)	10.8 µM (inactive)	16.4 µM (inactive)	14.5 µM (inactive)	8.79 µM (inactive)	10.9 µM (inactive)	> 100 µM (inactive)	14.7 µM (inactive)	10.4 µM (inactive)	8.79 µM (inactive)	17.2 µM (inactive)
COc1ccc(-n2cnnc2-c2nsc3ccccc23)cc1	45.1 µM (inactive)	> 100 µM (inactive)	> 100 µM (inactive)	> 100 µM (inactive)	> 100 µM (inactive)	> 100 µM (inactive)	75.3 µM (inactive)	> 100 µM (inactive)	> 100 µM (inactive)	> 100 µM (inactive)	90.6 µM (inactive)	> 100 µM (inactive)	> 100 µM (inactive)	90.6 µM (inactive)	> 100 µM (inactive)	92.5 µM (inactive)	78.2 µM (inactive)	> 100 µM (inactive)	> 100 µM (inactive)	
c1cc(CNC2C3CCC(C3)C2c2c[nH]c3ccccc23)cc(CNC2C3CCC(C3)C2c2c[nH]c3ccccc23)c1 (centres undefined)		1.4 µM (inactive) and 1.46 µM (inactive)		555 nM (active) and 232 nM (active)	1.41 µM (inactive) and 1.39 µM (inactive)	667 nM (active) and 638 nM (active)	1.58 µM (inactive) and 1.53 µM (inactive)	1.7 µM (inactive) and 1.58 µM (inactive)		619 nM (active) and 615 nM (active)	1.19 µM (inactive) and 1.57 µM (inactive)	229 nM (active) and 160 nM (active)	127 nM (active) and 145 nM (active)	155 nM (active) and 203 nM (active)	1.85 µM (inactive) and 1.91 µM (inactive)				258 nM (active) and 186 nM (active)	
COc1ccc(N2C(=O)C(=O)C3(CCCCC3)C2=O)c2ccccc12		> 10 µM (inactive)	> 10 µM (inactive)	> 10 µM (inactive)	> 10 µM (inactive)	> 10 µM (inactive)	> 10 µM (inactive)	> 10 µM (inactive)	> 10 µM (inactive)	> 10 µM (inactive)	> 10 µM (inactive)	9.77 µM (inactive)	> 10 µM (inactive)	> 10 µM (inactive)	> 10 µM (inactive)	> 10 µM (inactive)	> 10 µM (inactive)	> 10 µM (inactive)	> 10 µM (inactive)	> 10 µM (inactive)
CN1C(=O)c2ccccc2NC(=O)c2cnn(C)c21	> 100 µM (inactive)	> 100 µM (inactive)	> 100 µM (inactive)	> 100 µM (inactive)	> 100 µM (inactive)		> 100 µM (inactive)	> 100 µM (inactive)	> 100 µM (inactive)	> 100 µM (inactive)		> 100 µM (inactive)	> 100 µM (inactive)	> 100 µM (inactive)	> 100 µM (inactive)	> 100 µM (inactive)	> 100 µM (inactive)	> 21.6 µM (inactive)		> 100 µM (inactive)
